Assay results reported in patent EP3609473B1, “ORAL COMPOSITIONS FOR THE TREATMENT OF IRON […]” (Labomar S.p.A., priority 2017, dated 2018).

Settings: after SGF, 50 ml simulated intestinal fluid (SIF) added, pH settled at 6.0 with NaOH 2.5% w/v
Description: The solid composition (A) is maintained for 90 minutes (corresponding to the empty stomach emptying time) in a simulated gastric environment (SGF) pH 1.5 by adding HCl, thermostated at 37°C.
Subsequently, 50 ml of simulated intestinal fluid (SIF) are added to the system to simulate the transit in the first intestinal tract and the pH is settled at 6.0 with NaOH 2.5% w/v.

For `NCC(=O)[O-].NCC(=O)[O-].[Fe+2]` [bisglycinate iron, ferrous bisglycinate], the “colour of the liquid (purple = iron in reduced form; amber = no more reducible ferric oxides)” value was “amber-coloured liquid”.
